The results in this text go back to ChEMBL document CHEMBL5104165, “Novel fragment-derived colchicine-site binders as microtubule-destabilizing agents” (Eur J Med Chem, 2022).

Activity calls are given as the source filed them. No cut-off for these calls is given here. Bounds are passed on as bounds.

In one assay the test system is HeLa. Description: Cytotoxicity against human HeLa cells assessed as inhibition of cell growth incubated for 72 hrs by resazurin dye based assay. Type of assay: functional. (The colour change of resazurin is a common sign of viable cells or microbes.)
In assay [1] the target is T1, Tubulin (Homo sapiens) (UniProt P68371+Q9H4B7+P0DPH7+P68366+Q13509+Q71U36+P04350+Q3ZCM7+P07437+P68363+Q9BQE3+Q6PEY2+Q13885+Q9BVA1+Q9BUF5). Kind of assay: Disruption of microtubules in human HMF3A cells at 5 uM measured after 1 hr by immunostaining based confocal microscopic analysis. Type of assay: cell-based.
Assay [2] addresses T1, Tubulin (Homo sapiens). Description: Disruption of microtubules in human HMF3A cells assessed as increase in cell size at 5 uM measured after 4 hrs by immunostaining based confocal microscopic analysis.
Assay [3] deals with T1, Tubulin (Homo sapiens). Description: Disruption of microtubules in human HMF3A cells assessed as increase in nucleus size at 5 uM measured after 4 hrs by immunostaining based confocal microscopic analysis. Type of assay: cell-based.

As to `c1coc(CNc2nc3ccccc3[nH]2)c1`, the IC50 (usually the concentration needed to halve the response being measured) in the assay on HeLa is 54 µM.

For `COC(=O)c1ccc2[nH]c(NCc3ccco3)nc2c1`, the IC50 in the assay on HeLa was found to be 7 µM.

For `N#Cc1ccc2[nH]c(NCc3ccco3)nc2c1`, the IC50 in the assay on HeLa is greater than 80 µM.

With `COc1ccc2[nH]c(NCc3ccco3)nc2c1`, in the assay with HeLa, the IC50 came to 10.1 µM.

Take `c1ccc(Oc2ccc3[nH]c(NCc4ccco4)nc3c2)cc1`: in the assay on HeLa, the IC50 is 0.94 µM. For the same compound, the outcome on Tubulin (Homo sapiens) [1], on Tubulin (Homo sapiens) [2] and on Tubulin (Homo sapiens) [3] was Active.

In the case of `Clc1ccc2[nH]c(NCc3ccco3)nc2c1`, the IC50 with HeLa worked out at 4.5 µM.

In the case of `FC(F)(F)c1ccc2[nH]c(NCc3ccco3)nc2c1`, the IC50 with HeLa was 9.9 µM.

On to `Cc1ccc(CNc2nc3ccccc3[nH]2)o1`, for which the IC50 with HeLa amounted to 22.3 µM.

Turning to `Cc1ccc2[nH]c(NCc3ccco3)nc2c1`, the IC50 in the assay on HeLa is 5.6 µM.
